Results: patent US20040146535A1, “Agent for improving tissue penetration” (priority 2001, published 2004)

Tests used:
[1] = system: porcine brain microvascular endothelial cells (PBEC); experiment: Transport (permeation) across PBEC monolayers on Transwell filter inserts, in vitro model of the blood-brain barrier
From the text: (§1) Monolayers of primary cultures of porcine brain microvascular endothelial cells (PBEC) represent an in vitro model of the blood-brain barrier. They form monolayers under standard culture conditions both on various collagen coated solid substrates and permeable filters of polycarbonate. The PBEC-monolayer grows on the filter membranes in polarized manner with the apical side representing the capillary lumen but the basolateral side corresponding to brain tissue. As soon as the cells become confluent and build up a tight layer after 7 days PBEC are ready to be used for transport experiments. Due to the formation of functional tight junctions, they show a high transendothelial electrical resistance (TEER) and a tight barrier is created with biological properties similar to the cerebral capillary endothelium
(§2) The PBEC cells were cultivated in M199, which was supplemented with 10% OS, 0.7 mM L^−1 glutamine, 10,000 U·mL^−1 penicillin/streptomycin and 50·μg mL^−1 gentamicin at 37° C., 5% CO2 and saturated humidity. The cells were subcultivated after being detached with trypsin-EDTA solution and sown on Transwell(r) filter inserts (Costar®, Wiesbaden, Germany). The filters consist of polycarbonate with a surface of 1.13 cm2 and a pore diameter of 0.4 μm.
(§3) The growth of the PBEC into confluent, differentiated monolayers on Transwell® filter inserts was verified by measurements of the TEER. […] Fluorescein passes the monolayer paracellularly, whereas propranolol is transported transcellularly. The transport studies were carried out directly on the Transwell® plates. The culture medium M199 in the apical and the basolateral compartment was replaced by serum free medium DME/Ham's F12 supplemented as described for M199 and with 0.2 μg·mL^−1 hydrocortisone one day prior to the experiment. All transport experiments involving cell-cultures were carried out as triplicates. For application of substances on the apical side half of the medium of aspirated, mixed with appropriate stock solution of the substance to be investigated and replaced onto the filter. For qualification of transcellular transport by propranolol, KRB replaced the DME/Ham's F12 as transport buffer. For transport across cell free filter inserts, the complete medium in the apical compartment was removed, mixed with stock solution and replaced into the donor compartment. […] Propranolol was dissolved in KRB (pH 7.4). Samples were collected at 15′, 30′, 45′, 60′, and 90′ from the acceptor, at 0′ and 90′ from the donor compartment and the sample volume was replaced by fresh transport buffer. Prior to the experiment and after the final sampling, the TEER of the monolayers was measured.
(§4) The apparent permeability coefficient (Papp, [cm·s^−1]) was calculated according to equation 1, where dQ/dt is the permeability rate (steady state transport rate, [μg·s^−1]) obtained from the profile of the transported amount of the substrate against the time. A (1.13 cm^2) is the surface of the exposed cell monolayer, m0 the original mass [μg] of the marker substance in the donor compartment (VDonor 0.5 mL). The effective barrier function of the cell-layer is calculated from the apparent permeation coefficient and the permeation coefficient of the cell-free filter according to equation 2. In case that Papp is of higher magnitude than Pfilter, negative permeability coefficients would be calculated. Negative values for Peff are unsensical, thus an unhindered penetration of the cell-layer is to be drawn as conclusion. [formula]
(§5) In order to find an appropriate concentration affecting the permeation across the BBB, four different concentrations of hexyldiglycerol (HexylG2) were checked for their influence on fluorescein permeation and transendothelial electrical resistance.

[2] = system: porcine brain microvascular endothelial cells (PBEC); experiment: Transendothelial electrical resistance (TEER) of PBEC monolayers; format: cell-based
Procedure: […]. Propranolol was dissolved in KRB (pH 7.4).
Since a more distinct effect was expected from in vivo findings, a concentration of 75 mM HexylG2 was selected to be tested with further impermeable markers.

[3] = in vitro; conditions: pig, permeability coefficient for fluorescein
From the text: as §1, §2, §3, §4, §5

With hexyldiglycerol [HexylG2] the “effect on the tightness of the model barrier (fluorescein permeation and TEER)” value ([1]; 0.1 mM, 1 mM and 10 mM of HexylG2) was “no effect”, the “enhancement of the penetration (permeability) of fluorescein” value ([1]; 50 mM HexylG2 versus w/o) was “about twofold” and the “monolayer permeability towards glucose, inulin and glycerol” value ([1]; treatment of PBEC monolayers, Example 4) was “significantly increased”. For the same compound, the “change in TEER” value ([2]; 50 mM HexylG2 (Table 1 experiment)) was “decrease in TEER” and the “change in TEER” value ([2]; 75 mM HexylG2 (Table 2 experiment)) was “complete loss of TEER”.
With `OCC(O)CO` [^14C-glycerol, glycerol, reference compound] the “Peff, permeability coefficient of paracellular-transport marker” value ([1]; pig, 90 min) was 0.96 ×10⁻⁶ cm/s.
In the case of `O=C1OC2(c3ccc(O)cc3Oc3cc(O)ccc32)c2ccccc21` [fluorescein, reference compound], the Papp A→B at 90 min ([3]; Papp) is reported as 0.28 ×10⁻⁶ cm/s and the Papp A→B at 90 min ([3]; Peff) is reported as 0.29 ×10⁻⁶ cm/s.
